Test results: ChEMBL document CHEMBL1770133, “Design of potent and selective GPR119 agonists for type II diabetes” (Bioorg Med Chem Lett, 2011)
≈ marks a conversion by molar mass, not a printed value.

How the values were obtained:
Mus musculus [1] = test: Antidiabetic activity in high fat fed C57BL/6 mouse assessed as change in AUC of blood glucose level at 30 mg/kg, po qd administered 1 hr before glucose challenge measured up to 120 mins by oral glucose tolerance test relative to control; assay type: functional, C57BL6
[2] = biological target: T1, Glucose-dependent insulinotropic receptor (Homo sapiens, UniProt Q8TDV5); test: Agonist activity at human GPR119 expressed in CHO cells co-expressing Galpha15 assessed as increase of intracellular cAMP accumulation after 60 mins by HTRF assay; assay type: functional, cell-based
T1 sequence (Q8TDV5 whole entry): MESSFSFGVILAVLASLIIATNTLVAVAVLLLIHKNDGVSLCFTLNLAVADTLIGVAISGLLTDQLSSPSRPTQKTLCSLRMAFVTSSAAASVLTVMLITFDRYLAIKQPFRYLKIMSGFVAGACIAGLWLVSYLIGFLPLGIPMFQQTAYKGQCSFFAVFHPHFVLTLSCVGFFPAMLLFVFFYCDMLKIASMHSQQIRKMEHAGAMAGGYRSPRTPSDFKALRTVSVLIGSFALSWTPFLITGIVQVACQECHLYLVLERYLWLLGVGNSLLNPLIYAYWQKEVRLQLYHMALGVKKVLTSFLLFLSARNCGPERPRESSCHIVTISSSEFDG

[3] = biological target: T2, Glucose-dependent insulinotropic receptor (Mus musculus, UniProt Q7TQP3); test: Agonist activity at mouse GPR119 expressed in CHO cells co-expressing Galpha15 assessed as increase of intracellular cAMP accumulation after 60 mins by HTRF assay; assay type: functional, cell-based
T2 sequence (Q7TQP3 whole entry): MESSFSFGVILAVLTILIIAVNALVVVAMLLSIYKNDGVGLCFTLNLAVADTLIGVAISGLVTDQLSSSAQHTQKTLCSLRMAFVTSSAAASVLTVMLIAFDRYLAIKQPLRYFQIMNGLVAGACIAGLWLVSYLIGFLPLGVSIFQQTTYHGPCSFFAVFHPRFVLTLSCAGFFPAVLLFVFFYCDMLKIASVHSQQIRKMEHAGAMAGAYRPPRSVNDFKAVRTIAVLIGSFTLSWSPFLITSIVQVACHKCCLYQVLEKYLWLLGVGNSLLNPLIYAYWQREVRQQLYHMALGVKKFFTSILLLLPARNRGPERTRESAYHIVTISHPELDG

[4] = biological target: T3, Glucose-dependent insulinotropic receptor (Homo sapiens) (UniProt Q8TDV5); test: Agonist activity at human GPR119 expressed in CHO cells co-expressing Galpha15 assessed as increase of intracellular cAMP accumulation at 10 uM after 60 mins by HTRF assay; assay type: functional, cell-based
T3 sequence (whole entry): T1 sequence (Q8TDV5 whole entry)

[5] = biological target: T4, Glucose-dependent insulinotropic receptor (Mus musculus) (UniProt Q7TQP3); test: Agonist activity at mouse GPR119 expressed in CHO cells co-expressing Galpha15 assessed as increase of intracellular cAMP accumulation at 10 uM after 60 mins by HTRF assay; assay type: functional, cell-based
T4 sequence (whole entry): T2 sequence (Q7TQP3 whole entry)

[6] = biological target: T5, Voltage-gated inwardly rectifying potassium channel KCNH2 (Homo sapiens, UniProt Q12809); test: Inhibition of human ERG
T5 sequence (Q12809 whole entry): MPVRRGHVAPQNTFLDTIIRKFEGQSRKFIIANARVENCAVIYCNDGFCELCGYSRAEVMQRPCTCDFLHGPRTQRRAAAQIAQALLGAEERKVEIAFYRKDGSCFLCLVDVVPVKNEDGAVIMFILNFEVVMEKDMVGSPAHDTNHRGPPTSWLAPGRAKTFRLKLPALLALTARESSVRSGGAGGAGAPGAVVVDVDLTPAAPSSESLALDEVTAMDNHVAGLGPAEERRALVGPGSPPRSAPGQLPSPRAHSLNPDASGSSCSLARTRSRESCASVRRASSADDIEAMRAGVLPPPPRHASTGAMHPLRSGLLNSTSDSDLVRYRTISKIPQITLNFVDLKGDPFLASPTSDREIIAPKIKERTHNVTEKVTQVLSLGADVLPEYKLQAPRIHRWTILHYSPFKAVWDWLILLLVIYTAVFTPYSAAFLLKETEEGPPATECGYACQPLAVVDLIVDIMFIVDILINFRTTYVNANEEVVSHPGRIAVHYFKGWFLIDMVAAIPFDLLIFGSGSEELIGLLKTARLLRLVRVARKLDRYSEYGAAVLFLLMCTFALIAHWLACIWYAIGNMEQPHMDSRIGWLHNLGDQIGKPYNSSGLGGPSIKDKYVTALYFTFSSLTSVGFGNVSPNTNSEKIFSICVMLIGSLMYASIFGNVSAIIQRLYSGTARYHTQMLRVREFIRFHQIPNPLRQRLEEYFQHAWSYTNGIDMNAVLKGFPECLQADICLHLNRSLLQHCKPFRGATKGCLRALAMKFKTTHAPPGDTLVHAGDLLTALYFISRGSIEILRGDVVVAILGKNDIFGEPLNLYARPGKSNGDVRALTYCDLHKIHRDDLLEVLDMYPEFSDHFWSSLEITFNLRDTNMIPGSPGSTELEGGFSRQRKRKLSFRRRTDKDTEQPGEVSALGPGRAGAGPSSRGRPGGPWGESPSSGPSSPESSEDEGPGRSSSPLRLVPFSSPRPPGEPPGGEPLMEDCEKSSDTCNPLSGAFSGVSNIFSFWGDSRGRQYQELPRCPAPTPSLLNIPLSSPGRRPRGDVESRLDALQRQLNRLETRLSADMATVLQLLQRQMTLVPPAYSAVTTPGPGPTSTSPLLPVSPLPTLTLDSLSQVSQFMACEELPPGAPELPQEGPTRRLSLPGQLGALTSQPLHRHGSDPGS

[7] = Volume of distribution at steady state in mouse at 1 mg/kg, iv and 10 mg/kg, po; assay type: ADME, organism-based; settings: in vivo, read-out: Vdss
[8] = Half life in mouse at 1 mg/kg, iv and 10 mg/kg, po; assay type: ADME, organism-based; settings: in vivo
Mus musculus [9] = test: Dose normalized AUC in mouse at 1 mg/kg, iv and 10 mg/kg, po; assay type: ADME, organism-based; settings: in vivo
[10] = Clearance in mouse at 1 mg/kg, iv and 10 mg/kg, po; assay type: ADME, organism-based; settings: in vivo
[11] = biological target: T5, Voltage-gated inwardly rectifying potassium channel KCNH2; test: Inhibition of human ERG by patch clamp technique
[12] = Solubility of compound in PEG400 after 3 to 7 days; assay type: physicochemical
Mus musculus [13] = test: Antidiabetic activity in high fat fed po dosed C57BL/6 mouse assessed as change in AUC of blood glucose level administered 1 hr before glucose challenge measured up to 120 mins by oral glucose tolerance test; assay type: functional; settings: C57BL6, Blood, read-out: MED
Canis familiaris = organism: Canis familiaris; test: Cardiotoxicity in dog assessed as QTc prolongation; assay type: toxicity, organism-based, Canis lupus familiaris; settings: in vivo

| Compound | EC50 [2] [µM] | EC50 [3] [µM] | also measured |
| --- | --- | --- | --- |
| Cc1cc(N2CCC(C3CCN(c4ncc(Cl)cn4)CC3)CC2)nc(C#N)n1 | 0.002 | 0.011 | Activity (Mus musculus [1]): 37% |
| CS(=O)(=O)c1ccc(N2CCC(C3CCN(c4cnccn4)CC3)CC2)cc1 | 0.201 | 0.239 |  |
| Cc1cnc(N2CCC(C3CCN(c4ccc(S(C)(=O)=O)cc4)CC3)CC2)nc1 | 0.057 | 0.045 |  |
| Cc1ccnc(N2CCC(C3CCN(c4ccc(S(C)(=O)=O)cc4)CC3)CC2)n1 |  |  | Activity [4]: < 10%; Activity [5]: < 10% |
| O=C(NC1CC1)c1ccc(OCC2CC2C2CCN(c3ncc(Cl)cn3)CC2)cc1F (racemic; 52) | 0.02 | 0.023 |  |
| CS(=O)(=O)c1ccc(N2CCC(C3CCN(c4ccc(F)cn4)CC3)CC2)cc1 | 0.019 | 0.206 |  |
| CC(C)(C)OC(=O)N1CCC(C2CCN(c3ccnc(C#N)n3)CC2)CC1 | 0.006 | 0.011 |  |
| C[S+]([O-])c1ccc(N2CCC(C3CCN(C(=O)OC(C)(C)C)CC3)CC2)cc1 (stereo not given) | 0.011 | 0.132 |  |
| CC(C)(C)OC(=O)N1CCC(C2CCN(c3ccncn3)CC2)CC1 | 0.116 | 0.379 |  |
| Cc1cnc(N2CCC(C3CCN(c4cc(C#N)nc(C)n4)CC3)CC2)cn1 | 0.03 | 0.082 | IC50 [6]: 5.4 µM; Activity (Mus musculus [1]): 7% |
| CC(C)(C)OC(=O)N1CCC(C2CCN(c3ccc(S(C)(=O)=O)cc3)CC2)CC1 | 0.022 | 0.036 | Vd [7]: 6.9 L/kg; half-life [8]: 36 min; AUC (Mus musculus [9]): 0.09 µM·kg·h/mg; clearance [10]: 120 mL/min/kg |
| O=C(NC1CC1)c1ccc(OCCCC2CC2CCCC2CCN(c3ncc(Cl)cn3)CC2)cc1F (racemic) | 0.0002 | 0.0008 |  |
| Cc1cccc(N2CCC(C3CCN(C(=O)OC(C)(C)C)CC3)CC2)c1 | 0.514 |  | Activity [5]: < 10% |
| CC(C)(C)OC(=O)N1CCC(C2CCN(c3cccc(S(C)(=O)=O)c3)CC2)CC1 | 1.9 |  | Activity [5]: < 10% |
| CC(C)(C)OC(=O)N1CCC(C2CCN(c3ncccn3)CC2)CC1 | 0.526 | 0.523 |  |
| O=C(NC1CC1)c1ccc(OCC2CC2CC2CCN(c3ncc(Cl)cn3)CC2)cc1F (racemic; 57) | 0.009 | 0.018 | IC50 [6]: > 30 µM |
| Clc1cnc(N2CCC([C@H]3C[C@H]3CCOc3ccc(-n4ccnn4)cn3)CC2)nc1 | 0.002 | 0.004 | IC50 [11]: 44 µM; solubility [12]: 11.4 mg/mL (≈ 26.8 mM); minimal effective dose (Mus musculus [13]): 1 mg/kg |
| Cc1cnc(N2CCC([C@H]3C[C@H]3CCOc3nc(C)cc(C#N)n3)CC2)nc1 | 0.002 | 0.002 | solubility [12]: 24.8 mg/mL (≈ 65.5 mM); minimal effective dose (Mus musculus [13]): 0.01 mg/kg; Activity (Canis familiaris): Toxic |
| CSc1ccc(N2CCC(C3CCN(C(=O)OC(C)(C)C)CC3)CC2)cc1 | 0.6 | 0.513 |  |
| CS(=O)(=O)c1ccc(N2CCC(C3CCN(c4ccccn4)CC3)CC2)cc1 | 0.039 | 0.682 |  |
| Cc1nc(C#N)cc(N2CCC(C3CCN(C(=O)OC(C)(C)C)CC3)CC2)n1 | 0.002 | 0.002 |  |
| Cc1ccc(N2CCC(C3CCN(C(=O)OC(C)(C)C)CC3)CC2)cc1 | 0.338 | 1.9 |  |
| CS(=O)(=O)c1ccc(N2CCC(C3CCN(c4ncccn4)CC3)CC2)cc1 | 0.098 | 0.887 |  |
